The text below walks through data of patent US11485729B2, “Substituted pyridazinone compound” (Shenzhen TargetRx, Inc., priority 2018, dated 2022).

One data set is described as follows: Metabolic stability evaluation in human liver microsomes. It counts as in vitro ADME. The following applies: pH 7.4, Human liver microsome, 0.5 mg/mL protein, 1 μM compound. As for the experimental part:
(2) Metabolic Stability Evaluation
Microsome assay: human liver microsomes: 0.5 mg/mL, Xenotech; rat liver microsomes: 0.5 mg/mL, Xenotech; coenzyme (NADPH/NADH): 1 mM, Sigma Life Science; magnesium chloride: 5 mM, 100 mM phosphate buffer (pH 7.4).
Preparation of stock solutions: Powder of the example compounds were accurately weighed and dissolved in DMSO to 5 mM respectively.
Preparation of phosphate buffer (100 mM, pH7.4): A pre-prepared 0.5M potassium dihydrogen phosphate (150 mL) was mixed with 0.5M dibasic potassium phosphate (700 mL). The pH of the mixture was adjusted to 7.4 with 0.5M dibasic potassium phosphate solution. The mixture was diluted 5-fold with ultrapure water before use, and magnesium chloride was added to obtain a phosphate buffer (100 mM) containing 100 mM potassium phosphate, 3.3 mM magnesium chloride, pH 7.4.
A NADPH regeneration system solution (containing 6.5 mM NADP, 16.5 mM G-6-P, 3 U/mL G-6-P D, 3.3 mM magnesium chloride) was prepared and placed on wet ice prior to use.
Preparation of stop solution: an acetonitrile solution containing 50 ng/mL propranolol hydrochloride and 200 ng/mL tolbutamide (internal standard). 25057.5 μL of phosphate buffer (pH 7.4) was taken into a 50 mL centrifuge tube, to which 812.5 μL of human liver microsomes were added, and mixed to obtain a liver microsome dilution with a protein concentration of 0.625 mg/mL. 25057.5 μL of phosphate buffer (pH 7.4) was taken into a 50 mL centrifuge tube, to which 812.5 μL of SD rat liver microsomes were added, and mixed to obtain a liver microsome dilution with a protein concentration of 0.625 mg/mL.
Incubation of the samples: The stock solutions of the respective compounds were respectively diluted to 0.25 mM with an aqueous solution containing 70% acetonitrile, and used as a working solution, ready for use. 398 μL of the dilutions of human liver microsomes and rat liver microsomes were added to 96-well incubation plates (N=2), respectively, and 2 μL of 0.25 mM working solution was added respectively and mixed.
Metabolic stability assay: 300 μL of pre-chilled stop solution was added to each well of 96-well deep well plates and placed on ice as stop plates. The 96-well incubation plates and NADPH regeneration system were placed in a 37° C. water bath, shaken at 100 rpm and pre-incubated for 5 min. 80 μL of incubation solution was taken out from each well of the incubation plates and added to the stop plates, mixed, and replenished with 20 μL of NADPH regeneration system solution as a 0-min sample. 80 μL of NADPH regeneration system solution was added to each well of the incubation plates to start the reaction and start counting. […] Separately, 100 μL of the reaction solutions was taken at 10, 30, and 90 min after the reaction, respectively, added to stop plates, and vortexed for 3 minutes to terminate the reaction. The stop plates were centrifuged at 5000×g at 4° C. for 10 min. 100 μL of the supernatant was added to a 96-well plate to which 100 μL of distilled water was previously added, mixed, and analyzed by LC-MS/MS.
Data analysis: The peak areas of the corresponding compounds and internal standard were detected by LC-MS/MS system, and the ratio of the peak area of the compounds to the internal standard was calculated.
The metabolic stability of the compounds in human and rat liver microsomes was evaluated by simultaneously testing and comparing the compounds disclosed herein and the non-deuterated compound. The non-deuterated compound MGL-3196 was used as a control sample.
In general terms: Microsomes from liver hold many membrane-bound enzymes, among them those of drug oxidation.
For orientation: half-life means the time in which the quantity being followed falls by half. For orientation: microsomal CLint means a measure of how fast metabolising enzymes remove a compound, apart from limits set by blood flow. On to `[2H]C([2H])([2H])C(c1cc(Oc2c(Cl)cc(-n3nc(C#N)c(=O)[nH]c3=O)cc2Cl)n[nH]c1=O)C([2H])([2H])[2H]` [Compound M-2, 2-(3,5-dichloro-4-((6-oxo-5-(propan-2-yl-1,1,1,3,3,3-d6)-1,6-dihydropyridazin-3-yl)oxy)phenyl)-3,5-dioxo-2,3,4,5-tetrahydro-1,2,4-triazine-6-carbonitrile], for which the half-life at 1 μM is more than 16.7 h and the microsomal CLint at 1 μM was 0.1 to 2 µL/min/mg.

Turning to `[2H]c1c(Cl)c(Oc2cc(C(C([2H])([2H])[2H])C([2H])([2H])[2H])c(=O)[nH]n2)c(Cl)c([2H])c1-n1nc(C#N)c(=O)[nH]c1=O` [Compound M-3, 2-(3,5-dichloro-4-((6-oxo-5-(propan-2-yl-1,1,1,3,3,3-d6)-1,6-dihydropyridazin-3-yl)oxy)phenyl-2,6-d2)-3,5-dioxo-2,3,4,5-tetrahydro-1,2,4-triazine-6-carbonitrile], the half-life at 1 μM is more than 16.7 h and the microsomal CLint at 1 μM fell in the range of 0.1 to 2 µL/min/mg.

Take `CC(C)c1cc(Oc2c(Cl)cc(-n3nc(C#N)c(=O)[nH]c3=O)cc2Cl)n[nH]c1=O` [MGL-3196, 2-(3,5-dichloro-4-((5-isopropyl-6-oxo-1,6-dihydropyridazin-3-yl)oxy)phenyl)-3,5-dioxo-2,3,4,5-tetrahydro-1,2,4-triazine-6-carbonitrile, reference compound]: the half-life at 1 μM was less than 8.33 h and the microsomal CLint at 1 μM lay within 2.5 to 3 µL/min/mg.

For the molecule `[2H]c1c(Cl)c(Oc2cc(C(C)C)c(=O)[nH]n2)c(Cl)c([2H])c1-n1nc(C#N)c(=O)[nH]c1=O` [Compound M-4, 2-(3,5-dichloro-4-((5-isopropyl-6-oxo-1,6-dihydropyridazin-3-yl)oxy)phenyl-2,6-d2)-3,5-dioxo-2,3,4,5-tetrahydro-1,2,4-triazine-6-carbonitrile], the half-life at 1 μM is more than 16.7 h and the microsomal CLint at 1 μM is 0.1 to 2 µL/min/mg.

Take `[2H]C([2H])([2H])C(C)c1cc(Oc2c(Cl)cc(-n3nc(C#N)c(=O)[nH]c3=O)cc2Cl)n[nH]c1=O` (stereo not drawn) [Compound M-1, 2-(3,5-dichloro-4-((6-oxo-5-(propan-2-yl-1,1,1-d3)-1,6-dihydropyridazin-3-yl)oxy)phenyl)-3,5-dioxo-2,3,4,5-tetrahydro-1,2,4-triazine-6-carbonitrile]: the half-life at 1 μM is more than 16.7 h and the microsomal CLint at 1 μM was 0.1 to 2 µL/min/mg.

Experiment in another data set: not given
The following applies: preclinical toxicology, clinical phase 1 and phase II data; cited from earlier work.
As for `CC(C)c1cc(Oc2c(Cl)cc(-n3nc(C#N)c(=O)[nH]c3=O)cc2Cl)n[nH]c1=O` [MGL-3196, 2-(3,5-dichloro-4-((5-isopropyl-6-oxo-1,6-dihydropyridazin-3-yl)oxy)phenyl)-3,5-dioxo-2,3,4,5-tetrahydro-1,2,4-triazine-6-carbonitrile, reference compound], the “effect on the central thyroid axis, heart rate or bone” value is “no inhibitory effect” and the liver enzymes result is “no increase of the liver enzymes has been observed”.
